Positions count from the first letter of the chain named.

Experiment [1] has as its target T1, Y1 receptor TSA (T361A, S362A) (Rattus norvegicus, UniProt P21555, S362A/T361A).
T1 sequence (P21555 2-382 T361A/S362A): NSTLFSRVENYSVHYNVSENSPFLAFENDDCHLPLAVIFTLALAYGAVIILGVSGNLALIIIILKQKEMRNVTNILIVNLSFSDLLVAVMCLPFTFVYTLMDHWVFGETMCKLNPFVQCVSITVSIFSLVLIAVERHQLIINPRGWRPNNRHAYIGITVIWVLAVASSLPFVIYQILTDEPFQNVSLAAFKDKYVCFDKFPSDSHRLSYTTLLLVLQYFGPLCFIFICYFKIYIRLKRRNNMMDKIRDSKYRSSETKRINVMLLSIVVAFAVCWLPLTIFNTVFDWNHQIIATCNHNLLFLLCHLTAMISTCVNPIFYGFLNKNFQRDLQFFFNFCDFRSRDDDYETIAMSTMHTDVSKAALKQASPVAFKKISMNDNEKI
Nature of the experiment: [125I]PYY competition binding, Y1 TSA/βarr2 membranes.

The target in a further experiment is T2, Y1 receptor STA, TSA (Rattus norvegicus, UniProt P21555, S352A/S362A/T353A/T361A).
T2 sequence (P21555 2-382 S352A/T353A/T361A/S362A): T1 sequence (P21555 2-382 T361A/S362A) with S351A, T352A
Nature of the experiment: [125I]PYY competition binding, Y1 STA, TSA/βarr2 membranes.

In a further experiment the target is T3, Y2 receptor H155P (Homo sapiens, UniProt P49146, H155P).
T3 sequence (P49146 1-381 H155P): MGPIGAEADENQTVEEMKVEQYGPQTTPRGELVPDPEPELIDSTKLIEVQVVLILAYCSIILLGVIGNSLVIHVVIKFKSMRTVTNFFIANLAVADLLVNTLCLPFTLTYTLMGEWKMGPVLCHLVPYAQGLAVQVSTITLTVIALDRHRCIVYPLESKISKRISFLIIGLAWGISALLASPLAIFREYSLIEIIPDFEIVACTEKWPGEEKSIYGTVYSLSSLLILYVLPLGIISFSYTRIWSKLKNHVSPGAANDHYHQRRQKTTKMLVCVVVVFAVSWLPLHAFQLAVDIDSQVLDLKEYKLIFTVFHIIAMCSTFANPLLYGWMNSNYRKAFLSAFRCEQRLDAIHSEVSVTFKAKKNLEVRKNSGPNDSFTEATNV
The class given is binding.

Experiment [2] has as its target T4, Y1 receptor T356A, S359A, TSA (Rattus norvegicus, UniProt P21555, S359A/S362A/T356A/T361A).
T4 sequence (P21555 2-382 T356A/S359A/T361A/S362A): T1 sequence (P21555 2-382 T361A/S362A) with T355A, S358A
Nature of the experiment: [125I]PYY competition binding, Y1 T356A, S359A, TSA/βarr2 membranes.

The target in the next experiment is T5, Y1 receptor (Rattus norvegicus, UniProt P21555).
T5 sequence (P21555 2-382): T1 sequence (P21555 2-382 T361A/S362A) with A360T, A361S
Put plainly: [125I]PYY competition binding, Y1/βarr2 membranes. To be noted: inhibition of [125I]PYY specific binding.

Another experiment concerns Y1 receptor ΔY346. The class given is binding, rat.
[3] abbreviates: inhibition of [125I]PYY specific binding.

As for `Nc1nc2c(ncn2[C@@H]2O[C@H](COP(=O)(O)OP(=O)(O)OP(O)(O)=S)[C@@H](O)[C@H]2O)c(=O)[nH]1` [GTPγS, guanosine-5′-O-(3-thio)triphosphate], in experiment [1] (1 µM GTPγS), the “GTPγS 1 µM inhibition (%), Y1 TSA” value came out at 51.4 ± 4.9%. Moreover, the “GTPγS pIC50, Y1 TSA” value in experiment [1] (setting [3]) is 9.40 ± 0.10. The “GTPγS 1 µM inhibition (%), Y1 STA, TSA” value on Y1 receptor STA, TSA (1 µM GTPγS) turned out to be 58.2 ± 5.0%. Further, the “GTPγS pIC50, Y1 STA, TSA” value at Y1 receptor STA, TSA (setting [3]) is 9.03 ± 0.26. Also, on Y2 receptor H155P (1 µM GTPγS), the “GTPγS 1 µM inhibition (%), Y2 H155P” value was found to be 70.2 ± 5.3%. Further, the “GTPγS pIC50, Y2 H155P” value at Y2 receptor H155P (setting [3]) was 9.17 ± 0.05. For the same molecule, the “GTPγS 1 µM inhibition (%), Y1 T356A, S359A, TSA” value in experiment [2] (1 µM GTPγS) worked out at 53.0 ± 7.4%. Besides, the “GTPγS pIC50, Y1 T356A, S359A, TSA” value in experiment [2] (setting [3]) was determined as 9.21 ± 0.20. Moreover, on Y1 receptor (1 µM GTPγS), the “GTPγS 1 µM inhibition (%), Y1” value was 58.6 ± 4.1%. Also, on Y1 receptor (30 µg·mL−1 saponin), the “GTPγS pIC50, Y1” value was 9.05 ± 0.21. The “GTPγS 1 µM inhibition (%), Y1 ΔY346” value with Y1 receptor ΔY346 (1 µM GTPγS) is recorded as 61.9 ± 8.8%. The “GTPγS pIC50, Y1 ΔY346” value on Y1 receptor ΔY346 (setting [3]) came out at 8.57 ± 0.04.
